In this assay the test system is Mycobacterium bovis. It is filed as cell-based. Particulars: virulent/opportunistic multidrug resistant Mycobacterium bovis (BCG), incubation 48 hrs, n=3.

Data on one molecule can be found in US11427596B2, “Metal-free solvent-free synthesis of fused-pyrido heterocycles and biomedical applications” (Indian Institute of Technology Indore, priority 2019, dated 2022).

Each structure is given as a SMILES string.

For `Cc1ccc(-c2nc(COCc3cn(CCN4C(=O)C(=O)c5ccccc54)nn3)cc3oc(C)cc23)o1` [compound 26, 1-(2-(4-(((2-Methyl-4-(5-methylfuran-2-yl)furo[3,2-c]pyridin-6-yl)methoxy)methyl)-1H-1,2,3-triazol-1-yl)ethyl)indoline-2,3-dione], the “concentration range in which active (antituberculosis activity)” value lay within 70 to 100 µM.
